Data set [1] is described as follows: MTT cytotoxicity assay. Type of data set: cell-based, human. To be noted: human; HEK293 cells, 72 hours incubation; read-out: IC50 (cytotoxicity, MTT). How it is done:
HEK293 (human embryonic kidney cells were obtained from American Type Culture Collection (ATCC, Washington D.C.) and cultured as adherent monolayers in a humidified 5% CO2 atmosphere at 37° C. in Minimum Essential Media supplemented with 10% fetal bovine serum (FBS) and 100 U/mL penicillin/streptomycin. HeLa cells were cultured in Dulbecco's Modified Eagle's Medium (DMEM) supplemented with 10% FBS and 100 U/mL penicillin/streptomycin. Cells were checked for contamination monthly using the PlasmoTest™ mycoplasma detection kit. Ventricular cardiomyocytes were isolated from neonatal rats (NRVMs) as previously described (H. M. Piper et al., Piper H. M. (eds), Cell Culture Techniques in Heart and Vessel Research, Springer Verlag: Berlin, 1990). The isolated myocytes were cultured in Ham's F-10 supplemented with 5%/o fetal bovine serum (FBS) and penicillin/streptomycin (100 U/ml) at 37° C. in a 95% air/5% CO2 humidified atmosphere for four days
Cells were seeded at 4000 cells/well in 100 μL/well in a 96-well plate and incubated for 24 hours. The media was removed and replaced with 200 μL of growth media containing varying concentrations of the complex. After 72 hours of incubation, the media was replaced with MEM containing 1 mg/mL of (4,5-dimethylthiazol-2-yl)-2,5-diepheyltetrazolium bromide (MTT). After four hours incubation, the media was removed and the purple formazan crystals were solubilized using 100 μL of a 8/1 DMSO/glycine buffer (pH 10) mixture. The absorbance at 570 nm was measured using a plate reader.
With the new nitrido-bridged ruthenium compounds C-2 and C-3 prepared, MCU-inhibitory properties of these compounds were evaluated and their activities compared to C-1, the oxo-bridged Ru360 analogue of the conventional art (S. R. Nathan et al., Inorg. Chem. 2017, 56, 3123-3126 and S. R. Nathan et al., J. Vis. Exp. 2017, 56527). The cytotoxicity of the complexes in HEK293 cells was first measured using the colorimetric thiazolyl blue tetrazolium bromide (MTT) assay, as well known in the art. […]

Data set [2] deals with HeLa cells. Kind of data set: Whole cell uptake of ruthenium (GFAAS) in HeLa cells. Type of data set: cell-based. To be noted: 50 μM, 24 hours.
Data set [3] has as its target T1, MCU C97A mutant (Homo sapiens, UniProt Q8NE86, C97A).
T1 construct: stably expressing Flag-tagged full-length wild-type MCU (MCU^WT) and the mutant C97A (MCU^C97A); Flag; expressed in transfected cells
T1 sequence (Q8NE86 51-351 C97A): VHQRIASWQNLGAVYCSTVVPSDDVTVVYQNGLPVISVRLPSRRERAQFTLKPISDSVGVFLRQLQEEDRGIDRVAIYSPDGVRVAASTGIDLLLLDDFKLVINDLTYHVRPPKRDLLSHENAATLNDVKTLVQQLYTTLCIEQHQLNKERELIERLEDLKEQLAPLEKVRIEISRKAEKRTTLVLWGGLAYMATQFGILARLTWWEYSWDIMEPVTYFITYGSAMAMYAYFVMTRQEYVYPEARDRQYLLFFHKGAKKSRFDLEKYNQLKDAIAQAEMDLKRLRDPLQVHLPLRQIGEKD
T1 sequence (Q9H4I9 48-107 partner limits assumed): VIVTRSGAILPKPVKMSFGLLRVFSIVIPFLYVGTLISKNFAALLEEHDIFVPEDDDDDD
Put plainly: mCa2+ uptake in permeabilized HEK293T cells expressing MCU C97A mutant. Type of data set: cell-based. To be noted: C-2 10 nM, Ru360 500 nM. The protocol:
An equal number of IHEK293T (6×10^6 cells) were washed in Ca^2+ free PBS, pH 7.4, resuspended and permeabilized with 40 μg/ml digitonin in 1.5 ml of intracellular medium (ICM) composed of 120 mM KCl, 10 mM NaCl, 1 mM K—H2PO4, 20 mM HE PES-Tris, pH 7.2 and 2 μM thapsigargin to block the SERCA pump. All measurements were performed in the presence of 2 mM succinate. The permeabilized cells were loaded with JC-1 (800 nM) and Fura2-FF (0.5 μM), respectively. Fluorescence was monitored in a multi-wavelength excitation dual-wavelength emission fluorimeter. [Ca^2+]out is represented as the excitation ratio (340 nm/380 nm) of Fura2-FF/FA fluorescence and ΔΨm as the ratio of the fluorescence of J-aggregate (570 nm excitation/595 nm emission) and monomer (490 nm excitation/535 nm emission) forms of JC-1. A series of extra-mitochondrial Ca^2+ bolus (20 μM) was added and mitochondrial uncoupler, CCCP (2 jμM), were added at the indicated time points. All of the experiments were performed at 37° C. with constant stirring.
To determine if C-2 interacts with the NTD, HEK293T cells stably expressing Flag-tagged full-length wild-type MCU (MCU^WT) and the mutant C97A (MCU^C97A) were permeabilized, and mCa^2+ uptake was measured as above.

Data set [4] deals with T2, recombinant human MCU-NTD (residues 72-189) (Homo sapiens, UniProt Q8NE86).
T2 construct: recombinant human MCU-NTD (residues 72-189)
T2 sequence (Q8NE86 72-189): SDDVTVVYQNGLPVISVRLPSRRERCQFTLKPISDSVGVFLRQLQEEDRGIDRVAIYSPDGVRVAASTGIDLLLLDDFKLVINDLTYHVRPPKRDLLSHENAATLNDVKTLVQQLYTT
Kind of data set: Interaction with recombinant MCU-NTD (NMR HSQC, SDS-PAGE). Type of data set: binding. To be noted: for interaction with MCU-NTD in solution: cell-free, C-2 at 3-fold molar excess. The source says:
To further elucidate the potential interaction of C-2 with the MCU-NTD, the interaction between C-2 and the uniformly ^15N-labeled recombinant human MCU-NTD (residues 72-189) was investigated using solution nuclear magnetic resonance (NMR) spectroscopy.
To determine if the MCU-NTD remained intact upon treatment with C-2, the insoluble aggregate (Insol.+C-2) was resuspended in loading dye and the migration of the protein was compared to untreated soluble MCU-NTD (Sol.) by SDIS-PAGE analysis. […] The appearance of the trimer and higher order aggregates upon treatment with C-2 may indicate that the MCU-NTD conformation induced by C-2 is different from that of the native conformation. Similar MCU-NTD aggregation was observed when the MCU-NTD was treated with lower molar ratios (i.e. 1:2 and 1:1) of C-2.
The clustering of these perturbations could be a result of i) direct binding with the compound, ii) indirect effects of the lower soluble protein concentration shifting the self-association equilibrium, or iii) C-2-mediated modifications to the protein. […] Thus, the NTD may be a potent target for MCU inhibition that is only accessible to C-2 because of its enhanced membrane permeability when compared to Ru360.

Data set [5] concerns HeLa cells. Put plainly: Mitochondrial accumulation of ruthenium in HeLa cells (mitochondrial isolation, GFAAS). To be noted: 50 μM, 24 hours.
Protocol: Approximately 1×10^6 HeLa cells were seeded in 75 cm^2 dishes and allowed to adhere overnight. The following day, the cell culture media was removed, and the cells were washed with 3 mL of PBS before treatment with media containing 50 μM of the complex. After 24 hours, the culture media was removed, and the cell monolayer was washed with 3 mL of PBS before the cells were harvested by trypsinization. The cell suspension was centrifuged, and the resulting pellet was resuspended in 3 ml, of PBS and centrifuged again to remove extracellular ruthenium. This washing step was repeated a total of three times. […] The ruthenium concentration in each sample was determined by GFAAS and was normalized to the protein content of the lysate, which was determined using the Bicinchoninic Acid Protein Assay Kit. […] Results were calculated as the mass ratio of total ruthenium to protein (pg/μg) in each sample±standard deviation of three independent trials. […]
To determine the abilities of the complexes to accumulate in the mitochondria, HeLa cells were treated with C-1, C-2 or C-3 (50 μM) in culture media for 24 hours, and the mitochondria were isolated following modified literature procedures (e.g., A. C. Komor et al., J. Am Chem. Soc. 2012, 134, 19223-19233). Both the mitochondrial and extramitochondrial fractions were analyzed for ruthenium content.

On to `N.N.N.N.N.N.N.N.[Cl-].[Cl-].[N-3].[Ru+4].[Ru+4]` [C-2, [Ru2(μ-N)(NH3)8Cl2]Cl3], for which the CC50 at 72 h in data set [1] came out at 195 ± 8 µM. The “cellular uptake relative to C-1 and C-3” value in data set [2] was “twice as effectively as C-1 and C-3”. Also, the “effect of MCU C97A mutation on MCU inhibition compared to MCU WT cells” value in data set [3] is “significantly reduced MCU inhibitory activity”. For the same molecule, the “SDS-PAGE of protein precipitate formed with MCU-NTD” value in data set [4] (Coomassie blue staining) is “distinct and systematic laddering corresponding to the presence of monomer, dimer, trimer, tetramer, and higher aggregate formation”. Also, the “interaction with MCU-NTD in solution” value in data set [4] was “rapid formation of insoluble precipitate”. Also, in data set [5], the “concentration in the mitochondria compared to C-1 and C-3” value is reported as “greater than three-fold higher concentrations”.
For the molecule `N.N.N.N.N.N.N.N.O=C[O-].O=C[O-].[O-2].[Ru+3].[Ru+4]` [Ru360, reference compound], the “effect of MCU C97A mutation on MCU inhibition compared to MCU WT cells” value in data set [3] was “almost no effect on the activity”. Further, the “interaction with MCU-NTD in solution” value in data set [4] is “interacts with the purified MCU-NTD in a cell-free system, giving rise to precipitation and systematic laddering”.
